Reference: patent publication US20190224213A1, “VAGINAL COMPOSITION COMPRISING A COMBINATION OF ESTROGEN AND VITAMIN D” (CHEMO RESEARCH S.L., priority 2016, published 2019)

What was measured:
[1] = Body weight evolution in ovariectomized rats during 6-week local treatment; format: in vivo, rat; conditions: 6-week treatment, irrespective of the dose
From the text: (§1) 8-10 weeks-old female Sprague Dawley rats (Janvier, France) are first acclimated during a period of time of one week or more.
(§2) The acclimated rats undergo a bilateral ovariectomy (at “Day 0”), so as to induce an experimental menopause.
(§3) Three weeks after ovariectomy (at Day 21), the ovariectomized rats are divided in five distinct groups of at least eight animals per group, respectively: • Group 1: the ovariectomized rats receive no treatment at all • Group 2: the ovariectomized rats are administered once daily with an ovule comprising a liquid saline (placebo) • Group 3: the ovariectomized rats are administered once daily with an ovule comprising estradiol alone, in the absence of vitamin D analog • Group 4: the ovariectomized rats are administered once daily with an ovule comprising vitamin D analog alone, in the absence of estradiol. • Group 5: the ovariectomized rats are administered once daily with an ovule comprising (i) the combination of estradiol and vitamin D analog.
(§4) Each of the Groups 1, 2, 3, 4 and 5 of ovariectomized rats receives the indicated treatment during a period of time of six weeks (thus until Day 63).
The body weight of each tested animal is monitored twice a week.

[2] = tested on: vaginal epithelium; conditions: oral 0.500 mcg calcitriol/day, at least one year, vs non-supplemented postmenopausal women; cited from earlier work
[3] = Calcium plasma level in ovariectomized rats; format: in vivo, rat
Method: as §3, §4

[4] = tested on: vaginal epithelium; assay: Vaginal epithelium thickness evaluation in ovariectomized rats; format: in vivo, rat; conditions: 6-week treatment
From the text: as §1, §2, §3, §4
One part of the vagina tissue material is paraffin-embedded. Slices of the paraffin-embedded vaginal tissue are stained for studying and measuring the vaginal epithelium thickness as well as the vaginal epithelium morphology. […]

[5] = tested on: vaginal epithelium; assay: Vaginal Maturation Index: percentage of leukocytes in vaginal smears of ovariectomized rats; format: in vivo, rat; conditions: calcitriol alone at 0.006 μg
Method: as §3, §4
(§5) Smears of vaginal tissue are collected from each of the tested animal by gentle scraping along the wall of the vagina the day before the first treatment and the day following the last treatment for determining the Vaginal Maturation Index (VMI).
(§6) For each rat, 2 samples are taken by gentle scraping along the wall of the vagina. […]
(§7) VMI is assessed as a ratio obtained through performing a random count of 3 major cell types. […]

[6] = tested on: vaginal epithelium; assay: Vaginal Maturation Index: percentage of cornified cells in vaginal smears of ovariectomized rats; format: in vivo, rat; conditions: calcitriol, irrespectively of the doses tested
Method: as §3, §4, §5, §6, §7

[7] = tested on: vaginal maturation index and urogenital symptoms; conditions: oral raloxifene 60 mg/day with 400 IU vitamin D and 600 mg calcium, 3 months, vs risedronate-based regimen; cited from earlier work
[8] = tested on: vaginal atrophy; conditions: vaginal suppository 1000 IU, daily for 8 weeks, 44 postmenopausal women; cited from earlier work
[9] = tested on: vaginal epithelium; assay: Histology of the vaginal tissue cornified cell layer in ovariectomized rats (FIG. 3); format: in vivo, rat
Method: as §3, §4
One part of the vagina tissue material is paraffin-embedded. Slices of the paraffin-embedded vaginal tissue are stained for studying and measuring the vaginal epithelium thickness as well as the vaginal epithelium morphology.
Vaginal tissue is then separated into two parts: • one half is fixed in 10% neutral buffered formalin and paraffin-embedded for epithelium thickness evaluation and morphology (H&E coloration) • the second half will be immediately frozen and stored at −80° C. for further evaluation.
Vaginal tissue is embedded in paraffin, sectioned and stained with hematoxylin/eosine (2 slides/rat) using a fully automated multi-stainer system for histological analysis, the Multistainer ST5020 in conjunction with the CV5030 Coverslipper marketed by the Company Leica Biosystems (Germany).

Q: Which results are given for `C=C1/C(=C\C=C2/CCC[C@]3(C)[C@@H]([C@H](C)CCCC(C)(C)O)CC[C@@H]23)C[C@@H](O)C[C@@H]1O` [Calcitriol, 1α,25-dihydroxyvitamin D3]?
A: body weight evolution [1]: did not cause any change; squamous maturation of the vaginal epithelium [2]: resulted in squamous maturation; calcium plasma level: significance versus placebo ([3]; Calcitriol 0.08 μg): **** (“****” means p<0.001 versus placebo); calcium plasma level: significance versus placebo ([3]; Calcitriol 0.1 μg): **** (“****” means p<0.001 versus placebo); calcium plasma level ([3]; calcitriol dose 0.006 μg): did not cause any significant change; calcium plasma level ([3]; dose of 0.08 μg): significantly increased; calcium plasma level ([3]; dose of 0.1 μg): significantly increased; vaginal epithelium thickness as compared to placebo ([4]; calcitriol alone, irrespective of the dose tested): did not cause any change; vaginal epithelium content in leukocytes [5]: no effect; content of the vaginal epithelium cornified cells [6]: no significant change

Q: For `O=C(c1ccc(OCCN2CCCCC2)cc1)c1c(-c2ccc(O)cc2)sc2cc(O)ccc12` [raloxifene], which vaginal maturation index [7] is on record?
A: improvement

Q: What about the “vaginal pH” value [7] of the same compound?
A: improvement

Q: Which results are given for vitamin D?
A: superficial cells in the vaginal epithelium [8]: significant increase; vaginal pH [8]: significant decrease

Q: What does the source list for `C[C@]12CC[C@@H]3c4ccc(O)cc4CC[C@H]3[C@@H]1CC[C@@H]2O` [Estradiol, (17beta)-estra-1,3,5(10)-triene-3,17-diol]?
A: body weight evolution [1]: did not cause any change; cornified cell layer in histological photograph ([9]; 0.02 μg dose of estradiol (FIG. 3B)): does not cause a detectable change; cornified cell layer in histological photograph ([9]; 0.08 μg estradiol (FIG. 3C)): thickness and a density which increase with the increasing doses; cornified cell layer in histological photograph ([9]; 0.4 μg estradiol (FIG. 3D)): thickness and a density which increase with the increasing doses; vaginal epithelium thickness as compared to placebo ([4]; 0.4 μg dose of estradiol): high increase
